Changes are numbered by the printed parent chain.
Experiments:
Androgen receptor W742L = molecular target: T1, Androgen receptor W742L (Homo sapiens, UniProt P10275, W742L); assay: Degradation of overexpressed Androgen Receptor in A549 cells (HiBiT), W742L; type: cell-based; settings: A549 cells overexpressing AR W742L, cycloheximide, 24 hours
T1 construct: expressed in transfected cells; host or cells: A549, transduced, puromycin selected
T1 sequence (P10275 1-920 W742L): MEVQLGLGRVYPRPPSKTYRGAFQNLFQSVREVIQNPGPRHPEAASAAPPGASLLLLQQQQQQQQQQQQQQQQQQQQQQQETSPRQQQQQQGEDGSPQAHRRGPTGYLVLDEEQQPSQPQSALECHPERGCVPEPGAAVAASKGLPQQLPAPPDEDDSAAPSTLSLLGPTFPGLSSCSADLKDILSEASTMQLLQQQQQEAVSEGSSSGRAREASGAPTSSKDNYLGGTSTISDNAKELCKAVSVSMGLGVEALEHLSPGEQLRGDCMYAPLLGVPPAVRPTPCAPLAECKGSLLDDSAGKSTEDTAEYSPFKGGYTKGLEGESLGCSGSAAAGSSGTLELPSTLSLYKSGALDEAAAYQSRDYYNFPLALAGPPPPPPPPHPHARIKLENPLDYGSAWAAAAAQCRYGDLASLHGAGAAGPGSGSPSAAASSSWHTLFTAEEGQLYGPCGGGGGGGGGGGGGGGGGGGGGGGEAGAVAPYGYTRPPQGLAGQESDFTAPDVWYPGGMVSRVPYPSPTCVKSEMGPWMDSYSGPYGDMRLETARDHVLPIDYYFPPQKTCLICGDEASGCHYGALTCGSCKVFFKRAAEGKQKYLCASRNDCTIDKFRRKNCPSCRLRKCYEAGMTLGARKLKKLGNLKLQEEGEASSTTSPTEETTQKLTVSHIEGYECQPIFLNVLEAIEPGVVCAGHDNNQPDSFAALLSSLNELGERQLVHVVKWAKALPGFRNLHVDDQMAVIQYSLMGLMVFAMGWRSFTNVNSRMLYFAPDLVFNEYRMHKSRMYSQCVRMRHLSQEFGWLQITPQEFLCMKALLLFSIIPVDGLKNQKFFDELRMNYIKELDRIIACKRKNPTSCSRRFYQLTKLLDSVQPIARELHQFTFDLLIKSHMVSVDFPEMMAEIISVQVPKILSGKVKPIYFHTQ
Experimental: (§1) A549 cells were transduced to express wild type androgen receptor and Androgen receptor containing the following mutations (L702H, H875Y W742C W742L F877L, T878A and T878A/H875Y) with HiBiT tags. Transduced cells following puromycin selection were maintained in a humidified incubator (at 37° C. and 5% CO2 in the DMEM medium supplemented with 1% (v/v) Pen/Strep, 1% (v/v) Glutamax and 10% (v/v) FBS. A549 cells expressing each AR construct were detached from plate and counted. Cell suspensions at density 0.2 million per mL were prepared. Cell suspension was supplemented with 100 μg/mL of cycloheximide to block protein synthesis. Cells were preincubated with cycloheximide for 1 hr before seeding. Cells were seeded onto 384-well plate at density of 5,000 in 25 μL per well. A two fold serial dilution of test compounds, starting from 1 μM (row A) in 2-fold serial dilution series across the column using Tecan D300e dispenser. […]
(§2) Nano-Glo HiBiT Lytic reagent was prepared by adding LgBiT protein and Nano-Glo® substrate to lytic buffer pre-equilibrated at room temperature following manufacturer protocol (https://www.promega.co.uk/resources/protocols/technical-manuals/101/nanoglo-luciferase-assay-system-protocol). […] The plates were then centrifuged (100×G, 1 min) and incubated on shaker for 10 mins before taking readings on Pherastar Luminescence microplate reader. […]

Androgen receptor W742C = molecular target: T2, Androgen receptor W742C (Homo sapiens, UniProt P10275, W742C); assay: Degradation of overexpressed Androgen Receptor in A549 cells (HiBiT), W742C; type: cell-based; settings: A549 cells overexpressing AR W742C, cycloheximide, 24 hours
T2 construct: expressed in transfected cells; host or cells: A549, transduced, puromycin selected
T2 sequence (P10275 1-920 W742C): T1 sequence (P10275 1-920 W742L) with L742C
Experimental: as §1, §2

COc1cc(O[C@H]2C(C)(C)[C@H](NC(=O)c3ccc(N4CCC(CN5CCC(n6ncc7c(N8CCC(=O)NC8=O)nccc76)CC5)CC4)c(F)c3)C2(C)C)ccc1C#N [Example 20, N-((1r,3r)-3-(4-Cyano-3-methoxyphenoxy)-2,2,4,4-tetramethylcyclobutyl)-4-(4-((4-(4-(2,4-dioxotetrahydropyrimidin-1(2H)-yl)-1H-pyrazolo[4,3-c]pyridin-1-yl)piperidin-1-yl)methyl)piperidin-1-yl)-3-fluorobenzamide]
Summary pXC50 (Androgen receptor W742L): 8.93 | Summary pXC50 (Androgen receptor W742C): 8.57
